Experimental data: patent US9101603B2, “Targeting of CYP1B1 in the treatment of head and neck cancer and lung cancer” (Institute for Cancer Research, priority 2010, dated 2015)

Experiments:
Assay type in all cases: cell-based
MSK-Leuk1 cells [1] = experiment: Apoptosis assay (Guava Nexin kit, annexin V positive cells); settings: 72 h; for effect on the E2-mediated decrease in apoptosis: fulvestrant 1 μM added to 1 nM E2; for decrease of apoptosis by exposure to E2: 1 nM E2
Description: (§1) For all the experiments that involved estradiol (E2) exposure, MSK-Leuk1 cells were cultured in phenol red-free and serum-free DermaLife® K Medium (Lifeline Cell Technology, Walkersville, Md.). SCC cells were cultured in their respective media with no phenol red, supplemented with charcoal-stripped serum (Gibco, Carlsbad, Calif.). Cells were incubated for 48 h to remove endogenous estrogens and then plated at 70% confluence. After 24 h, the medium was replaced with either control medium containing vehicle (0.01% ethanol) or medium supplemented with 1 nM E2 (Sigma-Aldrich, St. Louis, Mo.). Cells were harvested after the appropriate treatment period and analyzed.
Apoptosis assay. Apoptosis was assessed using the Guava Nexin kit (Millipore, Billerica, Mass.). Fifty thousand cells were plated per well in 6-well plates. After the appropriate treatment, floating cells were collected, combined with attached cells following trypsinization, and resuspended in DermaLife® K Medium (Lifeline Cell Technology, Walkersville, Md.) supplemented with 5% FBS. The cell suspension (100 μl) was incubated with 100 μl of Guava® Nexin Reagent for 20 min, according to the manufacturer's instructions. Two thousand cells were analyzed from each sample using the Guava® EasyCyte™ system, and the resulting data were expressed as a percentage of apoptotic cells (annexin V positive cells/total number of cells counted).

MSK-Leuk1 cells [2] = experiment: Cell proliferation (total DNA content, Fluorescent DNA Quantitation kit); settings: vector-expressing cells; 1 nM E2; 72 h; not statistically significant
Description: as §1
Cell proliferation. Fifty thousand cells/well were plated in 6-well plates. After the appropriate treatment, the DNA content of the cells, an indirect measure of proliferation, was determined using a Fluorescent DNA Quantitation kit (Bio-Rad Laboratories, Hercules, Calif.). In brief, cells were harvested, sonicated in 0.1×TEN assay buffer (Bio-Rad Laboratories) for 5 s, and incubated with a Hoechst dye mixture (BioRad Laboratories) for 1 h. Total DNA was measured using Fluoroscan Ascent FL (Thermo Fisher Scientific, Waltham, Mass.) at an excitation wavelength of 360 nm and an emission wavelength of 460 nm.

MSK-Leuk1 cells [3] = experiment: Cell motility assay (scratch gap closure, 16 h), vector- or CYP1B1 shRNA-expressing cells; settings: 1 nM E2, vector- and CYP1B1 shRNA-expressing MSK-Leuk1 cells
Description: as §1
Cell motility assay. MSK-Leuk1 cells, expressing either vector or CYP1B1 shRNA, were cultured in phenol red-free and serum-free medium for 48 h and then plated at 70% confluence. After 24 h, the cells were treated with either vehicle or E2 (1 nM) in triplicate, as described above. […] The area devoid of cells was measured on every image using MetaMorph 7.0 (Molecular Devices, Inc., Sunnyvale, Calif.). The gap closure percentages were calculated as (area at 0 h−area at 16 h)/(area at 0 h).
In addition, a time-lapse movie capturing the process of gap closure in vector-expressing MSK-Leuk1 cells was obtained. […] The percentage of proliferating cells (those rounded up for cell division) was counted in this representative area.

SMILES	effect on the E2-mediated decrease in apoptosis (MSK-Leuk1 cells [1])	effect on the E2-mediated decrease in apoptosis (MSK-Leuk1 cells [1]; listed as Fulvestrant)	induction of cell proliferation by E2 exposure (MSK-Leuk1 cells [2])	decrease of apoptosis by exposure to E2 (MSK-Leuk1 cells [1]; CYP1B1 shRNA-expressing cells, P=0.015)	decrease of apoptosis by exposure to E2 (MSK-Leuk1 cells [1]; vector-expressing cells, P=0.030)	effect of E2 treatment on motility (MSK-Leuk1 cells [3])
C[C@]12CC[C@@H]3c4ccc(O)cc4C[C@@H](CCCCCCCCC[S+]([O-])CCCC(F)(F)C(F)(F)F)[C@H]3[C@@H]1CC[C@@H]2O (stereo partly drawn) [fulvestrant]	restored	restores	–	–	–	–
C[C@]12CC[C@@H]3c4ccc(O)cc4CC[C@H]3[C@@H]1CC[C@@H]2O [E2, 17β-estradiol]	–	–	10%	30.1%	25.5%	not affected
